Experimental findings from patent US10800812B2, “Compstatin analogs with increased solubility and improved pharmacokinetic properties” (The Trustees of the University of Pennsylvania, priority 2018, dated 2020) are described below.

Converted amounts (≈) assume the structure as drawn.

Data set [1] relates to classical pathway activation (C3b deposition). Briefly: Classical pathway activation ELISA (C3b deposition) with or without rabbit vitreous. It counts as biochemical, human. The settings on record: in the absence of vitreous. The method, then:
An alternative explanation to the one presented above is that the vitreous contains additional unidentified factors that associate with the Cp40-KKK analog. To investigate whether an unidentified vitreous factor impacts the complement inhibitory activity of lysine containing compounds, complement activation assays were performed using vitreous samples. Briefly, human plasma was incubated with OVA-anti-OVA immune-complexes in the presence of serial dilutions of the Cp40-based analogs mixed with rabbit vitreous. Levels of classical pathway activation (C3b deposition) were determined by ELISA using a polyclonal anti-human C3 antibody conjugated with HRP (MP Biomedicals, Solon, Ohio) (FIG. 20).
In general terms: In an ELISA, binding on a coated surface is turned into a signal by an enzyme label.

The target in another data set is T1, human C3b (Homo sapiens, UniProt P01024).
T1 construct: purchased Complement Technology, Inc., Tyler, Tex
T1 sequence (P01024 23-667 limits assumed): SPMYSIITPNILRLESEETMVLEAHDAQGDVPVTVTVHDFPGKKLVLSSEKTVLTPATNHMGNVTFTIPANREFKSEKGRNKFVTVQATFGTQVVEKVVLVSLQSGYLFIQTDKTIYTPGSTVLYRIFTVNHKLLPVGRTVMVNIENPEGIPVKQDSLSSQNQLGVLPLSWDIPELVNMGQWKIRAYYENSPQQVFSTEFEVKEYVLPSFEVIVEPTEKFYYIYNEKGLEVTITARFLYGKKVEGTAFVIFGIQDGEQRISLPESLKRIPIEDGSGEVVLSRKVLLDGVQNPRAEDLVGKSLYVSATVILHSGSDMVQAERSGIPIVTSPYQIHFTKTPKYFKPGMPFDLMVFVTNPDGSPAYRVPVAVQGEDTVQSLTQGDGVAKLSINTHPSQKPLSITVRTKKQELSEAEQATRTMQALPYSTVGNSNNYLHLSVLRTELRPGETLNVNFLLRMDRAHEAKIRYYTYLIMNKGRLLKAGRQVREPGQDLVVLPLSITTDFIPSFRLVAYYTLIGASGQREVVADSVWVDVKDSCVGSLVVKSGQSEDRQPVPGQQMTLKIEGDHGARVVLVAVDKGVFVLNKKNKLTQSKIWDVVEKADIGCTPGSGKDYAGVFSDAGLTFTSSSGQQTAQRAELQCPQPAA
T1 sequence (P01024 749-1663 partner limits assumed): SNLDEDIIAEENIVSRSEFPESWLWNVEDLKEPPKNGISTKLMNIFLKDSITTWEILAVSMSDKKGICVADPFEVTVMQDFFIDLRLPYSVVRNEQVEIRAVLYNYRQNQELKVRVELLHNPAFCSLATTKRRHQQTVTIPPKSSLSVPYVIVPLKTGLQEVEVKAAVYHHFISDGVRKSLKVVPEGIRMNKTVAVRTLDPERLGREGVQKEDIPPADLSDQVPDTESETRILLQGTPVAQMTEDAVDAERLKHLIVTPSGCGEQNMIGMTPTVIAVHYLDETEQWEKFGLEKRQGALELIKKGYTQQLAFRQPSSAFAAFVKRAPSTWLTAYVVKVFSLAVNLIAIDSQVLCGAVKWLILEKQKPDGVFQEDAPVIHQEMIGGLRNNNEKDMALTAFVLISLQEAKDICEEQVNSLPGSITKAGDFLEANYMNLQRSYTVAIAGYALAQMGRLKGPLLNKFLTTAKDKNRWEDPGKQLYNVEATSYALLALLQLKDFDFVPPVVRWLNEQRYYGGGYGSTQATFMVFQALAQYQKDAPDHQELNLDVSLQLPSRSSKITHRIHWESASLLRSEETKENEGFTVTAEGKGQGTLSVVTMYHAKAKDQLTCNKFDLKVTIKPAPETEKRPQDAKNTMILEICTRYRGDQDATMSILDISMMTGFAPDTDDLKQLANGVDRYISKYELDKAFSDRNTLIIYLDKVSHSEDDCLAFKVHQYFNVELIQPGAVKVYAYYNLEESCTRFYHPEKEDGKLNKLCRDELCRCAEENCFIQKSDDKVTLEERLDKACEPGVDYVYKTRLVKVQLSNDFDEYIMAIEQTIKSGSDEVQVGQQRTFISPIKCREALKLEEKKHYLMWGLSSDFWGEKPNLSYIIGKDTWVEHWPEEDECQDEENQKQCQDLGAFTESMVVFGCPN
Briefly: SPR binding affinity and kinetics with C3b. The following applies: 25° C., 1:1 Langmuir model; read-out: ka, association constant. On the technique in general: SPR reads the build-up and loss of mass on a sensor chip optically.

Data set [2] is described as follows: Lys cleavage fragments in NHP plasma after s.c. injection (UPLC-ESI-MS). It counts as in vivo, cynomolgus monkeys. The settings on record: 4 h after the s.c. injection of Cp40-KKK, one monkey.
Data set [3] can be described thus: Solubility of Cp40-based analogs in PBS. The following applies: for pH of the peptide solution in PBS: at the solubility concentration; for solubility: PBS, pH 7.4, Conc. (solubility in PBS), PBS (pH 7.4).
Data set [4] can be described thus: Pharmacokinetics after single i.m. injection. The following applies: cynomolgus monkey, in vivo, im, 25 mg/kg.
A further data set is described as follows: physchem. The following applies: pH 7.4, Conc. (solubility in PBS).
The nature of data set [5]: Residence time in the vitreous after intravitreal injection (WES / SPR competition assay). It counts as in vivo, cynomolgus monkeys. The settings on record: single i.v.t. injection 0.5 mg; days 14-90. The method, then:
To determine the residence time of mPEG(3k)-Cp40, mPEG(1k)-Cp40, Cp40-KK, and Cp40-KKK in the vitreous of cynomolgus macaques, these Cp40-based analogs were administered intravitreally (i.v.t.) to the animals after induction of light ketamine anesthesia (10-15 mg/kg, by intramuscular injection (i.m.)) and dilation of the pupils with tropicamide/phenylephrine ophthalmic solution (see Table 6 for study design).
For i.v.t. injection, the cynomolgus monkeys were anesthetized with a combination of ketamine (15-25 mg/kg, i.m.) and xylazine (2 mg/kg, i.m.) and the eye was cleaned with povidone-iodine solution. After application of oxybuprocaine hydrochloride solution (Benoxil® ophthalmic solution 0.4%) to the cornea as a local anesthetic, the Cp40-based analogs were administered to the animals by i.v.t. injection into either the right (G1, G3) or left (G2, G4) eye of each animal. Immediately following each injection, a single topical dose of 0.5% levofloxacin was administered. After i.v.t. injection of mPEG(3k)-Cp40, mPEG(1k)-Cp40, Cp40-KK, and Cp40-KKK, vitreous fluid samples (about 50 μL each) were withdrawn from Cp40-based analog-treated eyes on days 14, 28, 42, (G1, G2, G3, G4), 56, 73, 90 (G1, G2) (this was done either three times or six times). Samples were collected on ice and stored in a deep freezer (−79.3 to −68.5° C.) until further analysis. On day 73 and 90, about 100 μL of vitreous fluid from G1 and G2 were withdrawn. Presence and concentration of the Cp40-based analogs was determined using either the simple western technology (WES, ProteinSimple, San Jose, Calif.), or surface plasmon resonance (SPR)-based real-time measurement of binding kinetics on a Cp40-KKK immobilized chip (see detailed methods below). Similar results with regard to the intravitreal residence time and concentration levels of the test compounds were obtained regardless of the quantification method selected.
To quantify the levels of all test compounds in vitreous samples collected at different time points following i.v.t. injection (see FIG. 15), WES analysis was performed on a WES instrument (ProteinSimple, San Jose, Calif.) using a 2 to 40 kDa Separation Module and Anti-Rabbit Detection Module according to the manufacturers' instructions. In brief, undiluted eye vitreous samples were mixed with a Fluorescent Master Mix and heated at 95° C. for 5 min. The samples, blocking reagent, primary antibodies (in house developed anti-Cp40; 1:1000 in blocking reagent), HRP-conjugated secondary antibody (anti-rabbit IgG) and chemiluminescent substrate were pipetted into the plate (part of Separation Module). The used instrument settings were: stacking and separation at 375 V for 27 min; blocking reagent for 30 min, primary and secondary antibody both for 30 min; Luminol/peroxide chemiluminescence detection for ˜15 min (exposures of 5, 15, 30, 60, 120, 240, and 480 s). The resulting electropherograms were evaluated using the Compass software (ProteinSimple, San Jose, Calif.). The following criteria were used to discriminate low peptide signals from background: The peak signal-to-noise (S/N) ratio given by the software must be ≥10, and the peak height/baseline ratio (calculated manually from the peak height and baseline values given by the software) must be equal to or greater than 3. A five-point standard curve of known concentrations (100-2,000 nM) of peptide spiked in rabbit vitreous was used to calculate peptide concentration in the vitreous samples using the Compass software (Compass Software Inc., Atlanta, Ga.). […] Shown in FIG. 15 is a representative standard curve generated using the WES system and bands obtained upon running pre-determined amounts of purified peptide spiked into rabbit vitreous samples.
To corroborate the WES-based measurements for all test compounds, an SPR-based competition assay was developed for detecting Cp40 and Cp40 analogs in biological samples. […] The samples were heated at 95° C. for 5 min. […]

Data set [6] is described as follows: Pharmacokinetics after single i.v. injection. Also noted: species or system cynomolgus monkeys. The following applies: cynomolgus monkey, in vivo, iv. As for the experimental part:
In vivo pharmacokinetic studies were conducted, in which cynomolgus monkeys were administered single i.v. injections of mPEG(1k)-Cp40, mPEG(3k)-Cp40, Cp40-KK, or Cp40-KKK.

Data set [7] is described as follows: Pharmacokinetics in NHP plasma after single s.c. injection. The following applies: 2 mg/kg, NHP plasma, two animals.
The mark [8] stands for this setting: single s.c. 2 mg/kg, listed as Cp40-KK (SUM).

On to `CC[C@H](C)[C@H](NC(=O)[C@H](N)Cc1ccc(O)cc1)C(=O)N[C@H]1CSSC[C@@H](C(=O)N(C)[C@H](C(=O)N[C@@H](CCCCN)C(N)=O)[C@@H](C)CC)NC(=O)[C@H](CCCNC(=N)N)NC(=O)[C@H](Cc2c[nH]cn2)NC(=O)[C@H](C)NC(=O)CN(C)C(=O)[C@H](Cc2c[nH]c3ccccc23)NC(=O)[C@H](CC(=O)O)NC(=O)[C@H](CCC(N)=O)NC(=O)[C@H](Cc2cn(C)c3ccccc23)NC(=O)[C@H](C(C)C)NC1=O` [Cp40-K, DTyr-Ile-[Cys-Val-Trp(Me)-Gln-Asn-Trp-Sar-Ala-His-Arg-Cys]-mIle-Lys-NH2], for which, in data set [1], the “complement classical pathway inhibitory activity” value was “inhibitory activity in a dose-dependent manner”. The kon on human C3b amounted to 1.98e+06 M⁻¹ s⁻¹. Besides, the “Cp40-K detectable in plasma” value in data set [2] stood at 5 µM. In addition, in [3], the “pH of the peptide solution in PBS” value is listed as 7.5.

For `CC[C@H](C)[C@H](NC(=O)[C@H](N)Cc1ccc(O)cc1)C(=O)N[C@H]1CSSC[C@@H](C(=O)N(C)[C@H](C(=O)N[C@@H](CCCCN)C(=O)N[C@@H](CCCCN)C(N)=O)[C@@H](C)CC)NC(=O)[C@H](CCCNC(=N)N)NC(=O)[C@H](Cc2c[nH]cn2)NC(=O)[C@H](C)NC(=O)CN(C)C(=O)[C@H](Cc2c[nH]c3ccccc23)NC(=O)[C@H](CC(=O)O)NC(=O)[C@H](CCC(N)=O)NC(=O)[C@H](Cc2cn(C)c3ccccc23)NC(=O)[C@H](C(C)C)NC1=O` [Cp40-KK, DTyr-Ile-[Cys-Val-Trp(Me)-Gln-Asn-Trp-Sar-Ala-His-Arg-Cys]-mIle-Lys-Lys-NH2], the half-life in data set [4] is about 192 h; in [6] (single i.v. injection 2 mg/kg), 49.2 h; in data set [7] (male, cynomolgus monkey, plasma, sc, t1/2, single s.c. 2 mg/kg) it was 145 h. For the same molecule, the “complement classical pathway inhibitory activity” value in data set [1] is “inhibitory activity in a dose-dependent manner”. Further, the solubility in the data set “physchem” is over 245 mg/mL. Besides, the “detection in the vitreous at time points post-injection” value in [5] was “no longer detected on day 90”. Further, the “Lys cleavage in plasma upon i.v. injection” value in data set [6] is on record as “metabolized to minimal amounts of Cp40-K”. In data set [7] (male, cynomolgus monkey, plasma, sc, AUC0-t (0-120 h), single s.c. 2 mg/kg), this molecule displayed an AUC(0-t) of 329 µM·h. For the same molecule, the AUC(0-inf) in [7] (male, cynomolgus monkey, plasma, sc, AUCinf, single s.c. 2 mg/kg) came out at 597 µM·h. Moreover, the Cmax in [7] (male, cynomolgus monkey, plasma, sc, Cmax, single s.c. 2 mg/kg) turned out to be 12.9 µM; in [7] (setting [8]) it was 9.26 µM. In addition, the Tmax in data set [7] (male, cynomolgus monkey, plasma, sc, tmax, single s.c. 2 mg/kg) worked out at 1 h. Also, in data set [7] (single s.c. 2 mg/kg), the t1/2 is listed as 276 h. The “AUC0-t (0-120 h)” value in [7] (setting [8]) was found to be 257 µM·h. The molecule also came in with an AUCinf in data set [7] (setting [8]) of 755 µM·h. Besides, the kon on human C3b stood at 3.94e+06 M⁻¹ s⁻¹.

Turning to `CC[C@H](C)[C@H](NC(=O)[C@@H](Cc1ccc(O)cc1)NC(=O)CCOCCOCCOCCOCCOCCOCCOCCOCCOCCOCCOCCOC)C(=O)N[C@H]1CSSC[C@@H](C(=O)N(C)[C@H](C(N)=O)[C@@H](C)CC)NC(=O)[C@H](CCCNC(=N)N)NC(=O)[C@H](Cc2c[nH]cn2)NC(=O)[C@H](C)NC(=O)CN(C)C(=O)[C@H](Cc2c[nH]c3ccccc23)NC(=O)[C@H](CC(=O)O)NC(=O)[C@H](CCC(N)=O)NC(=O)[C@H](Cc2cn(C)c3ccccc23)NC(=O)[C@H](C(C)C)NC1=O` [mPEG(528)-Cp40], the kon on human C3b is 1e+06 M⁻¹ s⁻¹. In data set [3], this molecule showed a solubility of 2.3 mg/mL (≈ 0.975 mM).

As to `CC[C@H](C)[C@H](NC(=O)[C@@H](Cc1ccc(O)cc1)NC(=O)CCOCCOCCOCCOCCOCCOCCOCCOCCOCCOCCOCCOCCOCCOCCOCCOCCOCCOCCOCCOCCOCCOCCOCCOC)C(=O)N[C@H]1CSSC[C@@H](C(=O)N(C)[C@H](C(N)=O)[C@@H](C)CC)NC(=O)[C@H](CCCNC(=N)N)NC(=O)[C@H](Cc2c[nH]cn2)NC(=O)[C@H](C)NC(=O)CN(C)C(=O)[C@H](Cc2c[nH]c3ccccc23)NC(=O)[C@H](CC(=O)O)NC(=O)[C@H](CCC(N)=O)NC(=O)[C@H](Cc2cn(C)c3ccccc23)NC(=O)[C@H](C(C)C)NC1=O` [mPEG(1056)-Cp40], the kon on human C3b is 720000 M⁻¹ s⁻¹. The molecule further had a solubility in data set [3] of 137 mg/mL (≈ 47.4 mM).

As for “mPEG(1k)-Cp40: N-terminus of Cp40 coupled to polydisperse PEG chain of 1 kDa via amide coupling”, the “detection in the vitreous at time points post-injection” value in data set [5] is “detected at day 14 post injection but not in later time points”. In [6], this molecule yielded an AUC0-120 h of 304.4 to 312 µM·h.

On to “mPEG(2k)-Cp40: N-terminus of Cp40 coupled to polydisperse PEG chain of 2 kDa via amide coupling”, for which the “pH of the peptide solution in PBS” value in [3] worked out at 7.5.

As a reminder, the half-life is the time in which the quantity being followed falls by half. As usually defined, the solubility is the concentration that dissolves in the medium under given conditions. For orientation: AUC(0-t) means the area under the concentration-time curve up to a stated or last time point. One may read the AUC(0-inf) as the area under the concentration-time curve extrapolated to infinity. By Cmax is commonly meant the peak of the concentration-time curve. Usually Tmax stands for the time from dosing to the highest level.
